ChEMBL document CHEMBL5236579, “Hydrophobicity Determines the Bacterial Killing Rate of α-Helical Antimicrobial Peptides and Influences the Bacterial Resistance Development” (J Med Chem, 2022)
Values after ≈ are worked out from the molar mass of the structure shown. Active and inactive are the calls of the source. The rule behind the calls is not given here. Where a SMILES comes first, the peptide text is derived from it.

How the values were obtained:
Staphylococcus aureus [1] = test: Antimicrobial activity against Staphylococcus aureus ATCC25923 by two fold broth microdilution method; type: functional; conditions: read-out: MIC
Staphylococcus aureus [2] = test: Antimicrobial activity against clinical isolates Staphylococcus aureus by two fold broth microdilution method; type: functional
Bacillus cereus = test: Antimicrobial activity against clinical isolates Bacillus cereus by two fold broth microdilution method; type: functional
Escherichia coli [3] = test: Antimicrobial activity against Escherichia coli ATCC27622 by two fold broth microdilution method; type: functional
Vibrio parahaemolyticus [4] = test: Antimicrobial activity against Vibrio parahaemolyticus ATCC17802 by two fold broth microdilution method; type: functional
Vibrio parahaemolyticus [5] = test: Bactericidal activity against Vibrio parahaemolyticus ATCC17802 assessed as killing rate at 0.5 X MIC by measuring time limit of detection by bacterial killing kinetic assay; type: functional
Vibrio parahaemolyticus [6] = test: Induction of morphological changes in Vibrio parahaemolyticus ATCC17802 assessed as cellular inclusion leakage incubated at 5 times MIC and measured after 15 mins by scanning electron microscopy based analysis; type: functional, organism-based
Vibrio parahaemolyticus [7] = test: Induction of morphological changes in Vibrio parahaemolyticus ATCC17802 assessed as surface fibrosis incubated at 5 times MIC and measured after 15 mins by scanning electron microscopy based analysis; type: functional, organism-based
Vibrio parahaemolyticus [8] = test: Induction of morphological changes in Vibrio parahaemolyticus ATCC17802 assessed as massive cell collapse incubated at 5 times MIC and measured after 15 mins by scanning electron microscopy based analysis; type: functional, organism-based
HaCaT = test: Cytotoxicity against human HaCaT cells incubated for 48 hrs by MTT assay; type: toxicity, cell-based; conditions: dose < 250 µg/ml
Peritoneal macrophage = test: Cytotoxicity against mouse peritoneal macrophage cells incubated for 48 hrs by MTT assay; type: toxicity, cell-based; conditions: dose < 250 µg/ml
[9] = Hemolytic activity in human erythrocytes measured after 30 mins; type: toxicity, cell-based; conditions: erythrocyte, 0.5 h
Cell membrane [10] = test: Induction of inner membrane permeabilization in Vibrio parahaemolyticus ATCC17802 at 5 times MIC measured upto 200 mins by propidium iodide penetration assay; type: cell membranes
Cell membrane [11] = test: Induction of inner membrane permeabilization in Vibrio parahaemolyticus ATCC17802 assessed as calcein leakage at 5 times MIC by calcein-AM leakage assay; type: cell membranes; conditions: time <= 200.0 min, TDE = time-dependent effect
Cell membrane [12] = test: Induction of inner membrane permeabilization in Vibrio parahaemolyticus ATCC17802 assessed as increase in PI fluorescence intensity at 5 times MIC by propidium iodide penetration assay; type: cell membranes; conditions: time <= 200.0 min
Cell membrane [13] = test: Induction of bacterial inner membrane permeabilization in Vibrio parahaemolyticus ATCC17802 assessed as calcein leakage from large unilamellar vesicles liposomes at 5 times MIC measured upto 60 mins by fluorescence based microplate reader assay; type: cell membranes
Cell membrane [14] = test: Induction of cytoplasmic membrane permeabilization in Vibrio parahaemolyticus […] assessed as calcein transmembrane diffusion into interior of gaint unilamellar vesicles by measuring time to equilibrium between inside and outside of vesicles at 2 ug/mL by confocal microscopy based calcein-AM leakage assay; type: cell membranes; conditions: dose 2.0 µg/ml
Cell membrane [15] = test: Binding affinity to Vibrio parahaemolyticus ATCC17802 cell membrane assessed as increase in fluorescence intensity measured after 30 mins by flow cytometry analysis (reference value: 1.85%); type: cell membranes
Cell membrane [16] = test: Binding affinity to Vibrio parahaemolyticus ATCC17802 cell membrane assessed as increase in fluorescence intensity measured after 120 mins by flow cytometry analysis (reference value: 1.88%); type: cell membranes
Cell membrane [17] = test: Induction of outer membrane permeabilization in Vibrio parahaemolyticus ATCC17802 assessed as increase fluorescence intensity at 0.5 to 2 times of MIC by NPN uptake assay; type: cell membranes; conditions: time <= 15.0 min, TDE = time-dependent effect
Cell membrane [18] = test: Induction of outer membrane permeabilization in Escherichia coli ATCC25722 assessed as increase fluorescence intensity at 0.5 to 2 times of MIC by NPN uptake assay; type: cell membranes; conditions: time <= 15.0 min, TDE = time-dependent effect
Cell membrane [19] = test: Induction of outer membrane permeabilization in Vibrio parahaemolyticus ATCC17802 assessed as increase fluorescence intensity measured upto 15 mins by NPN uptake assay; type: cell membranes
Cell membrane [20] = test: Induction of outer membrane permeabilization in Escherichia coli ATCC25722 assessed as increase fluorescence intensity measured upto 15 mins by NPN uptake assay; type: cell membranes
Lipopolysaccharide (LPS) [21] = test: Binding affinity to Escherichia coli LPS assessed as LPS neutralizing activity measured after 5 mins by LPS neutralization assay
Lipopolysaccharide (LPS) [22] = test: Binding affinity to Escherichia coli LPS assessed as LPS neutralizing activity measured after 60 mins by LPS neutralization assay
Lipopolysaccharide (LPS) [23] = test: Binding affinity to Escherichia coli LPS assessed as dissociation constant measured upto 600 sec by surface plasmon resonance imaging method
[24] = Effect on morphological changes in POPC/POPG (3:1) bilayer membrane assessed as formation of bulge aggregates by measuring the height of bulges at 2 ug/ml incubated for 40 mins under neutral pH and low ionic strength by atomic force microscopic analysis; type: cell membranes; conditions: Cell membrane, dose 2.0 µg/ml
Escherichia coli [25] = test: In vivo antibacterial activity against Escherichia coli ATCC25722 infected in Balb/c mouse model assessed as reduction in bacterial CFU count on skin at 20 ug/ml applied 4 hrs after infection and measured after 120 mins; type: functional, organism-based; conditions: dose 20.0 µg/ml
Escherichia coli [26] = test: In vivo antibacterial activity against Escherichia coli ATCC25722 infected in Balb/c mouse model assessed as reduction in bacterial CFU count on skin at 20 ug/ml incubated for 6 hrs post infection and measured after 2 hrs post compound treatment; type: functional, organism-based; conditions: dose 20.0 µg/ml, time 8.0 hrs
Vibrio parahaemolyticus [27] = test: Induction of bacterial resistance in Vibrio parahaemolyticus ATCC17802 assessed as change in MIC treated over 30 serial passages measured after 24 hrs; type: functional, organism-based

Work on `CC[C@H](C)[C@H](NC(=O)[C@H](CC(C)C)NC(=O)[C@H](CCCNC(=N)N)NC(=O)[C@H](CC(C)C)NC(=O)[C@H](CC(C)C)NC(=O)[C@H](CCCCN)NC(=O)[C@H](CCCCN)NC(=O)[C@H](Cc1ccccc1)NC(=O)[C@H](CC(C)C)NC(=O)CNC(=O)[C@@H](N)CC(C)C)C(=O)N[C@@H](CC(C)C)C(=O)N[C@@H](CCCCN)C(=O)NCC(=O)N[C@@H](Cc1ccccc1)C(=O)N[C@@H](CCCCN)C(=O)N[C@@H](CC(C)C)C(=O)O` (H-LGLFKKLLRLILKGFKL-OH) yielded an MIC (Staphylococcus aureus [1]) of 1.17 µg/mL (≈ 0.585 µM), an MIC (Staphylococcus aureus [2]) of 9.38 µg/mL (≈ 4.69 µM) and an MIC (Bacillus cereus) of 9.38 µg/mL (≈ 4.69 µM). The MIC (Escherichia coli [3]) was 9.38 µg/mL (≈ 4.69 µM), the MIC (Vibrio parahaemolyticus [4]) was 4.69 µg/mL (≈ 2.34 µM) and the Time (Vibrio parahaemolyticus [5]) was 15 min. The Activity (Vibrio parahaemolyticus [6]) was “Active”, the Activity (Vibrio parahaemolyticus [7]) was “Active” and the Activity (Vibrio parahaemolyticus [8]) was “Active”. For the same compound, the Activity (HaCaT) was “Dose-Dependent Effect”, the Activity (Peritoneal macrophage) was “Dose-Dependent Effect” and the Activity [9] was “Toxic”. The Activity (Cell membrane [10]) was “Active”, the Activity (Cell membrane [11]) was “Tde” and the Activity (Cell membrane [12]) was “Active”. For the same compound, the Activity (Cell membrane [13]) was “Active”, the TIME (Cell membrane [14]) was < 0.25 h and the Activity (Cell membrane [15]) was 98.5%. The Activity (Cell membrane [16]) was 88.1%, the Activity (Cell membrane [17]) was “Tde” and the Activity (Cell membrane [18]) was “Tde”. For the same compound, the Activity (Cell membrane [19]) was “Dose-Dependent Effect”, the Activity (Cell membrane [20]) was “Dose-Dependent Effect” and the Activity (Lipopolysaccharide (LPS) [21]) was “Active”. The Activity (Lipopolysaccharide (LPS) [22]) was “Active”, the Kd (Lipopolysaccharide (LPS) [23]) was 82.1 µM and the Activity [24] was 20 nm. For the same compound, the Activity (Escherichia coli [25]) was “Active”, the Activity (Escherichia coli [26]) was “Active” and the Activity (Vibrio parahaemolyticus [27]) was “inactive”.
